According to patent US8980886B2, “Anthranilic acid derivatives” (Bayer Cropscience AG, priority 2010, dated 2015):

Assay: logP by HPLC on reversed-phase columns (C 18), EEC Directive 79/831 Annex V.A8
Format: physicochemical
Settings: reversed-phase HPLC column (C 18), pH 2.7, HPLC, reversed-phase C 18, acidic range pH 2.7; Preparation Examples
Protocol: The logP values reported in the table above and in the Preparation Examples were determined in accordance with EEC Directive 79/831 Annex V.A8 by HPLC (High Performance Liquid Chromatography) on reversed-phase columns (C 18), with the following methods: The LC-MS determination in the acidic range is carried out at pH 2.7 using the mobile phases 0.1% aqueous formic acid and acetonitrile (contains 0.1% formic acid), linear gradient from 10% acetonitrile to 95% acetonitrile Calibration was carried out using unbranched alkan-2-ones (having from 3 to 16 carbon atoms) with known logP values (the logP values were determined by the retention times using linear interpolation between two successive alkanones).

chromatographic logP | Structure (SMILES)
5.16 | Cc1cc(Cl)cc2c(=O)oc(-c3cnc(Cn4nnc(C(F)(F)F)n4)nc3-c3ccccc3Cl)nc12 [6-chloro-2-[4-(2-chlorophenyl)-2-{[5-(trifluoromethyl)-2H-tetrazol-2-yl]methyl}pyrimidin-5-yl]-8-methyl-4H-3,1-benzoxazin-4-one]
2.5 | O=C(O)c1cnc(Cn2nnc(C(F)(F)F)n2)nc1-c1ccccc1Cl [Example No. (IV-1), 4-(2-chlorophenyl)-2-[5-(trifluoromethyl)-2H-tetrazol-2-yl]methylpyrimidine-5-carboxylic acid]
3.32 | CCOC(=O)c1cnc(CBr)nc1-c1ccccc1Cl [Example No. (IX), ethyl 2-(bromomethyl)-4-(2-chlorophenyl)pyrimidine-5-carboxylate]
3.56 | CCOC(=O)c1cnc(Cn2nnc(C(F)(F)F)n2)nc1-c1ccccc1Cl [Example No. (X), ethyl 4-(2-chlorophenyl)-2-[5-(trifluoromethyl)-2H-tetrazol-2-yl]methylpyrimidine-5-carboxylate]

Same assay, conditions: reversed-phase HPLC column (C 18), pH 2.7, HPLC, reversed-phase C 18, acidic range pH 2.7; table of compounds; read-out: log P

Structure (SMILES) | chromatographic logP
CNC(=O)c1cc(Br)cc(C)c1NC(=O)c1nc(Cn2nnc(C(F)(F)F)n2)sc1-c1ccccc1Cl [Compound 1] | 3.98
Cc1cc(Cl)cc(C(=O)NC(C)C)c1NC(=O)c1nc(Cn2nnc(C(F)(F)F)n2)sc1-c1ccccc1Cl [Compound 2] | 4.34
CNC(=O)c1cc(Cl)cc(C)c1NC(=O)c1cn(Cc2ccc(C(F)(F)F)nc2)nc1-c1ccccc1Cl [Compound 4] | 3.12
Cc1cc(Br)cc(C(=O)NC(C)C)c1NC(=O)c1nc(Cn2nnc(C(F)(F)F)n2)sc1-c1ccccc1Cl [Compound 5] | 4.48
CNC(=O)c1cc(C#N)cc(C)c1NC(=O)c1nc(Cn2nnc(C(F)(F)F)n2)oc1-c1ccccc1Cl [Compound 6] | 3.25
Cc1cc(C#N)cc(C(=O)NC(C)(C)C)c1NC(=O)c1nc(Cn2nnc(C(F)(F)F)n2)oc1-c1ccccc1Cl [Compound 7] | 3.95
Cc1cc(C#N)cc(C(=O)NC(C)C)c1NC(=O)c1nc(Cn2nnc(C(F)(F)F)n2)oc1-c1ccccc1Cl [Compound 15] | 3.69
CNC(=O)c1cc(Cl)cc(C)c1NC(=O)c1nc(Cn2nnc(C(F)(F)F)n2)oc1-c1ccccc1Cl [Compound 16] | 3.65
Cc1cc(Cl)cc(C(=O)NC(C)(C)C)c1NC(=O)c1nc(Cn2nnc(C(F)(F)F)n2)oc1-c1ccccc1Cl [Compound 18] | 4.46
Cc1cc(Cl)cc(C(=O)NC(C)C)c1NC(=O)c1nc(Cn2nnc(C(F)(F)F)n2)oc1-c1ccccc1Cl [Compound 19] | 4.11
Cc1cc(Cl)cc(C(N)=O)c1NC(=O)c1nc(Cn2nnc(C(F)(F)F)n2)oc1-c1ccccc1Cl [Compound 20] | 3.45
CNC(=O)c1cc(Br)cc(C)c1NC(=O)c1nc(Cn2nnc(C(F)(F)F)n2)oc1-c1ccccc1Cl [Compound 21] | 3.72
Cc1cc(Br)cc(C(=O)NC(C)(C)C)c1NC(=O)c1nc(Cn2nnc(C(F)(F)F)n2)oc1-c1ccccc1Cl [Compound 22] | 4.52

Second part, the compound after the results:

chromatographic logP | Structure (SMILES)
4.21 | Cc1cc(Br)cc(C(=O)NC(C)C)c1NC(=O)c1nc(Cn2nnc(C(F)(F)F)n2)oc1-c1ccccc1Cl [Compound 23]
3.46 | CNC(=O)c1cc(C#N)cc(C)c1NC(=O)c1nc(Cn2nnc(C(F)(F)F)n2)sc1-c1ccccc1Cl [Compound 24]
4.29 | Cc1cc(C#N)cc(C(=O)NC(C)(C)C)c1NC(=O)c1nc(Cn2nnc(C(F)(F)F)n2)sc1-c1ccccc1Cl [Compound 28]
4.83 | Cc1cc(Br)cc(C(=O)NC(C)(C)C)c1NC(=O)c1nc(Cn2nnc(C(F)(F)F)n2)sc1-c1ccccc1Cl [Compound 29]
2.75 | CNC(=O)c1cc(C#N)cc(C)c1NC(=O)c1cc(C(=O)Cn2nnc(C(F)(F)F)n2)cn1-c1ncccc1Cl [Compound 33]
